Results: patent publication US20090047408A1, “Method for Improving Absorbability of Epigallocatechin Gallate, Foods, Drinks and Food/Drink Materials Using the Same and Method for Producing the Same” (ITO EN, LTD, priority 2005, published 2009)

Legend:
Assay type in all cases: in vivo
[1] = Absorbability of EGCg in rats: blood EGCg level after oral administration of caffeine and EGCg solutions (chemiluminescence-HPLC); details: average of six rats
Procedure: Teavigo, manufactured by DSM Nutritional Products) in 1 ml of water were prepared. In accordance with Experimental plots 1 to 7 shown in Table 1, the solution of caffeine and the solution of EGCg were orally administered to rats. After 60 minutes from the administration, the blood EGCG level in rats was measured by chemiluminescence-HPLC. The measurement was subjected by using six rats for each Experimental plot. The relationship between the C/E ratio and the blood EGCg level is graphically represented in accordance with Table 1, which is shown as FIG. 1. […] When the C/E ratio is lower or higher than that, the blood EGCg level is reduced.

[2] = Changes in blood concentration over time of orally ingested EGCg and caffeine in humans; details: oral ingestion
[3] = Absorbability of EGCg in humans: blood EGCg level after drinking drinks A to C (chemiluminescence-HPLC)
Procedure: Caffeine formulation (manufactured by […] Pharmaceutical Co., Ltd.), EGCg formulation (content of EGCg: 90% or more, trade name: Teavigo, manufactured by DSM Nutritional Products), ascorbic acid and citric acid were added in the amounts shown in Table 2, respectively, to 190 ml of water, which were dissolved. Thereafter, each of the resulting mixtures was poured into a can, respectively, which was sealed and sterilized by heat and then drinks A to C were prepared. […] Each of subjects drank one of the drinks […] minutes after the drinking was measured by chemiluminescence-HPLC. The measurement was subjected in three subjects for each drink. The relationship between the C/E ratio and the blood EGCg level is graphically represented in accordance with Table 2, which is shown as FIG. 2. According to Table 2, the blood EGCg level of subjects is the highest in the case that the drink B having the C/E ratio of 0.4 has been taken by the subjects, and the blood EGCg level falls in either case where the C/E ratio is lower or higher than that.

Row | Blood EGCg level ([1]; Exp. plot 1: rats, caffeine 0 mg + EGCg 30 mg, C/E ratio 0, 60 minutes after administration) | Blood EGCg level ([1]; Exp. plot 2: rats, caffeine 3 mg + EGCg 30 mg, C/E ratio 0.1, 60 minutes after administration) | Blood EGCg level ([1]; Exp. plot 3: rats, caffeine 6 mg + EGCg 30 mg, C/E ratio 0.2, 60 minutes after administration) | Blood EGCg level ([1]; Exp. plot 4: rats, caffeine 15 mg + EGCg 30 mg, C/E ratio 0.5, 60 minutes after administration) | Blood EGCg level ([1]; Exp. plot 5: rats, caffeine 30 mg + EGCg 30 mg, C/E ratio 1.0, 60 minutes after administration) | Blood EGCg level ([1]; Exp. plot 6: rats, caffeine 45 mg + EGCg 30 mg, C/E ratio 1.5, 60 minutes after administration) | Blood EGCg level ([1]; Exp. plot 7: rats, caffeine 65 mg + EGCg 30 mg, C/E ratio 2.2, 60 minutes after administration) | Absorbability of EGCg relative to EGCg alone ([3]; C/E ratio 0.18 to 0.70) | Absorbability of EGCg relative to normal green tea infusion ([3]; C/E ratio 0.18 to 0.70) | Absorbability of EGCg relative to EGCg alone ([3]; C/E ratio 0.20 to 0.60) | Absorbability of EGCg relative to normal green tea infusion ([3]; C/E ratio 0.20 to 0.60) | Increase of absorbability of EGCg relative to normal tea ([3]; optimized C/E ratio, maximum) | SMILES | Time at which blood concentration reaches a maximum value [2]
1 | 229 pmol/mL | 243 pmol/mL | 270 pmol/mL | 221 pmol/mL | 153 pmol/mL | 90 pmol/mL | 94 pmol/mL | ≥ 1.7 times | ≥ 1.1 times | ≥ 1.75 times | ≥ 1.15 times | up to 1.2 times | O=C(O[C@@H]1Cc2c(O)cc(O)cc2O[C@@H]1c1cc(O)c(O)c(O)c1)c1cc(O)c(O)c(O)c1 [EGCg, epigallocatechin gallate] | about 1.5 hours
2 | – | – | – | – | – | – | – | – | – | – | – | – | Cn1c(=O)c2c(ncn2C)n(C)c1=O [caffeine, reference compound] | about 1.5 hours
